# pKi: −log10 of the molar value.
# Molecular target: 72 kDa type IV collagenase (Homo sapiens, UniProt P08253)
# Sequence (P08253 whole entry): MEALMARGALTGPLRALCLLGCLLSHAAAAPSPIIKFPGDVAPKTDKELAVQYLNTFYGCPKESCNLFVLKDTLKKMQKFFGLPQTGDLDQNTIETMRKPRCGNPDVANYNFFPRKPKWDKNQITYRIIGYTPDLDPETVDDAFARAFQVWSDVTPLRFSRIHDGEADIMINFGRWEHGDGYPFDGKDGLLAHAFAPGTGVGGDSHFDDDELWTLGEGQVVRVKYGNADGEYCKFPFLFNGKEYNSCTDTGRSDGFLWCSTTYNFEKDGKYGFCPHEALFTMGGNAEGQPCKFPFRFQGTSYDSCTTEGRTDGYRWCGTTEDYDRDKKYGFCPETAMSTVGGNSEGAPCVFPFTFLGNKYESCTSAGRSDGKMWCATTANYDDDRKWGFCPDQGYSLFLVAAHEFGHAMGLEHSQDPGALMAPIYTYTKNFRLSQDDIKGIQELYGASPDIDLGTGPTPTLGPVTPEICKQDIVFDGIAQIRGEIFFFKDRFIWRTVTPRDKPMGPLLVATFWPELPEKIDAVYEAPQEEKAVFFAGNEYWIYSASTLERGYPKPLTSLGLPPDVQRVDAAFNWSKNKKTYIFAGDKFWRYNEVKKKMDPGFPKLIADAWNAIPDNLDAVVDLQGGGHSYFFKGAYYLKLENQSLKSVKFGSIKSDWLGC
# Description: Inhibition of human Matrix metalloprotease-2 (gelatinase-A)
row,pKi,Structure (SMILES)
1,5.52,CNC(=O)[C@H](Cc1c(F)c(F)c(F)c(F)c1F)NC(=O)Nc1nnc(S)s1
2,< 3.70,NC(=O)[C@H](Cc1ccccc1)NC(=O)Nc1nnc(S)s1
3,3.65,CN(C)C(=O)[C@H](Cc1ccccc1)NC(=O)Nc1nnc(S)s1
4,5.52,CNC(=O)[C@H](Cc1ccccc1)NC(=O)Nc1nnc(S)s1

# More lines, now with the values behind:
row,Structure (SMILES),pKi
1,CNC(=O)[C@H](CO)NC(=O)Nc1n[nH]c(=S)s1,< 3.70
2,CNC(=O)CNC(=O)Nc1n[nH]c(=S)s1,< 4.00

# Source: ChEMBL document CHEMBL1148319, “A molecular basis for the selectivity of thiadiazole urea inhibitors with stromelysin-1 and gelatinase-A from generalized born molecular dynamics simulations” (J Med Chem, 2004)
